Measured values reported in patent US20140219925A1, “POLYMER PARTICLES OR NANO-VECTORS AND USE THEREOF AS A DRUG AND/OR DIAGNOSTIC AGENT” (INSERM (Institut National de la Sante et de la Recherche …, priority 2011, published 2014).
Several values for one entry are separate records, joined by “and”; a condition that tells them apart may be missing. Identical values can stand only once. Like-named read-outs stand apart in the source and are kept apart here. Values belong to the compound of their own block, whether it stands above or below them.

Assays:
HDAC = test: BRET measurement of histone acetylation / HDAC inhibition in Met-5A cells; format: cell-based
Method: Cellular model: Met-5A cells (ATCC)
Seed 200000 cells per well of a 6-well plate in 2 ml of RPMI 10% FCS penicillin/streptomycin and glutamine.
D1: Transfection: phRluc-C1 BrD+pEYFP-C1 histone H3
600 ng of phRluc-C1 BrD+1500 ng of pEYFP-C1 histone H3 in 100 μl of crude RPMI.
After 6 h at 37° C., begin the treatments by adding 20 μl of treatment medium (RPMI 10% FCS penicillin, streptomycin and L-glutamine) comprising the test compounds at a ten-fold concentration.
Add 5 μl per well of coelenterazine h (Interchim) at 25 μM.
Parameters: Reading at 485 nm for 1 second and then reading at 530 nm for 1 second.
((value 530 nm phRluc-C1 BrD+pEYFP-C1 histone H3/value 480 nm phRluc-C1 BrD+pEYFP-C1 histone H3)-(value 530 nm phRluc-C1 BrD/value 480 nm phRluc-C1 BrD))×1000
Unit: milli BRET unit (mBu)
These experiments make it possible to evaluate the release of the HDAC inhibitors (HDI) in the live cells.

[1] = Hydrolysis in buffer solutions, release monitored by HPLC; format: physicochemical; settings: for half-life at 1 mg/ml: 1 mg/ml in acetonitrile 80% / buffer solution 20%
Method: The compound is put into an acid medium (citrate buffer for pH 4.3 and […] buffer for pH 7.3) and release of CI-994 is monitored by HPLC. The hydrolysis of the compounds of the invention was carried out in buffer solutions (citrate buffer for pH 4.3 and […] for pH 7.3) at pH=4.3 and at pH=7.3. The concentration of the samples is 1 mg/ml in the solution: acetonitrile at 80% and buffer solution at 20%. […] In some cases the measurements were prolonged for 2 or 3 weeks, or even a month.

EC50 (HDAC; read-out: EC50 (BRET), average value±standard deviation of three independent experiments): 0.86 ± 1.14 µM
Compound: CC(=O)Nc1ccc(C(=O)Nc2ccccc2N)cc1 [CI-994, reference compound]

half-life at 1 mg/ml ([1]; pH 4.3 citrate buffer, read-out: t1/2 pH 4.3): 0.5 h | half-life at 1 mg/ml ([1]; pH 7.3 Trisma buffer, read-out: t1/2 pH 7.3 (converted)): 86.4 h | EC50 (HDAC; average value±standard deviation of three independent experiments, read-out: EC50 (BRET)): 7.17 µM and 6.2 µM
Compound: C#CCOCCOCCOCCOCCn1cc(C(Nc2ccccc2NC(=O)c2ccc(NC(C)=O)cc2)(c2ccccc2)c2ccccc2)nn1 [Compound 9c, N-(2-((1-(3,6,9,12-tetraoxapentadec-14-ynyl)-1H-1,2,3-triazol-4-yl)diphenylmethylamino)phenyl)-4-acetamidobenzamide]

time without hydrolysis ([1]; pH 7.3): at least 1 month
Compound: N^1-((1-(3,6,9,12-tetraoxapentadec-14-ynyl)-1H-1,2,3-triazol-4-yl)bis(4-fluorophenyl)methoxy)phenyl [Compound 21g]
